The values below are quoted from earlier work in US20110003005A1, “Methods of Treating PDNV and PONV with Extended Release Ondansetron Compositions” (priority 2009, published 2011).

For `Cc1nccn1CC1CCc2c(c3ccccc3n2C)C1=O` (centres unmarked) [ondansetron], under “Pan et al. 2008”, the “effect of ondansetron administered after the 24 h period following surgery” value is reported as “efficacy” and the “effect of oral ondansetron administered in the 24 h period after surgery” value is reported as “no effect”. Also, the “nausea and vomiting post-discharge, relative to placebo” value (orally administered, Gan et al. 2002) is listed as “did reduce”. Where the note is “orally administered, Kovac et al. 1999”, the “improving control of nausea and vomiting in the 24 hour period following surgery” value is “ineffective”. Besides, under “over a 24 and 72 h period following surgery, Thagaard et al. 2003”, the “orally administered ondansetron versus placebo, nausea and vomiting” value is “no difference”.
